Like-named read-outs stand apart in the source and are kept apart here. Peptide text beside a SMILES is read from it. * marks the point of attachment. Propanoyl(3-(9AA-2-yl)) = Nc1c2ccccc2nc2ccc(CCC(=O)*)cc12
Assays:
[1] = Fluorescence lifetime by time-correlated single photon counting (Edinburgh Instruments FLS920); format: physicochemical; conditions: for Lifetime* (ns): Table 3, molecules synthesised; for Fluorescence Lifetime (nsecs) in PBS pH 7.4: excited at 405 nm, detection at 450 nm, 10 mM phosphate buffered saline pH 7.4; for Lifetime (ns): Table 2, 9-aminoacridine derivatives
Experimental: Fluorescence lifetimes were determined by time-correlated single photon counting using an Edinburgh Instruments FLS920 fluorimeter. Samples were excited at 405 nm with detection at 450 nm. Measurements were recorded in 10 mM phosphate buffered saline pH 7.4.
Excitation wavelength 405 nm and emission wavelength 450 nm.

[2] = Fluorescence emission spectra / intensity; format: physicochemical; conditions: for fluorescence emission intensity compared with N-methyl acridone: excitation at 405 nm, 140 mM NaCl, 10 mM phosphate buffer pH 7.4; for Relative intensity Ex405 nm, Emmax: relative to 9-aminoacridine = 1
Experimental: Fluorescence emission spectra of 10-methyl-9(10H)-thioacridone (N-methyl thioacridone) and 10-methyl-9(10H)-acridone (N-methylacridone) in 140 mM NaCl, 10 mM phosphate buffer pH 7.4 upon excitation at 405 nm, were obtained. The thioacridone concentration is 500 nM and the 10-methyl-9(10H)-acridone (N-methylacridone) concentration is 100 nM.
Fluorescence emission spectra of 9-aminoacridine and 10-methyl-9(10H)-acridone (N-methylacridone) upon excitation at 405 nm. Both compounds at a concentration of 100 nM in 140 mM NaCl, 10 mM phosphate buffer pH 7.4, were obtained.
Fluorescence emission spectrum of (Acridin-9-ylamino)acetic acid ethyl ester at 100 nM concentration in 140 mM NaCl, 10 mM phosphate buffer pH 7.4 upon excitation at 405 nm is shown in FIG. 4.

[3] = target: T1, Caspase-3 recombinant enzyme (Homo sapiens, UniProt P42574); test: Fluorescence lifetime based Caspase-3 cleavage assay of dye-labelled DEVDSW peptide; format: biochemical; conditions: 1 uM substrate
T1 construct: purchased Calbiochem
T1 sequence (P42574 29-175 limits assumed): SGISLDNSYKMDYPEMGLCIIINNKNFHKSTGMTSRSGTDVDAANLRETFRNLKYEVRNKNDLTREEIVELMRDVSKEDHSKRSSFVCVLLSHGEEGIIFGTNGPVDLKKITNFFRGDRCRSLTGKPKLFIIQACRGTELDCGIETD
T1 sequence (P42574 176-277 limits assumed): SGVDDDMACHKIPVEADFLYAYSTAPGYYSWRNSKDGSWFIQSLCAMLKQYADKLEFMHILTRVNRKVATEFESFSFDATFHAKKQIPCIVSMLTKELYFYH
Experimental: The 9-aminoacridine labelled peptide substrate, AA-DEVDSW (1 uM concentration in […] buffer pH 7.4 containing 10% sucrose, 0.1% CHAPS, 100 mM NaCl, 1 mM EDTA, 10 mM DTT) was employed in a biochemical assay using Caspase-3 recombinant enzyme (50 U and 20 U) at 30° C. The assay mixture was analysed at time intervals using an Edinburgh Instruments Fluorescence Lifetime Plate Reader. […] The data could also be easily viewed as a change in percentage cleavage over time, confirming that the reaction was progressing to completion after 90 minutes when 50 units of caspase 3 was employed (see FIGS. 8 and 9).
• Buffer: 20 mM HEPES buffer pH7.4 containing 10% sucrose, 0.1% CHAPS, 100 mM NaCl, 1 mM EDTA, 10 mM DTT • Substrate solution: 10 uM 3-(9-aminoacridin-2-yl) propionyl-DEVDSW in buffer. • Product solution: 10 uM 3-(9-aminoacridin-2-yl) propionyl-DEVDSK in buffer. • Enzyme solution: 10 U/ul in buffer. Procedure
To the well of a 96-well plate was added buffer (88 ul), substrate solution (10 ul, 1 uM final conc.) and enzyme (2 ul for 20 U). Reactions were performed in triplicate and also at varying enzyme concentrations. The reaction progress was followed at time intervals using an Edinburgh Instruments Fluorescence Lifetime Plate Reader against wells containing product and substrate standards.
The partially quenched 9-aminoacridine-labelled peptide substrate, 3-(9-aminoacridin-2-yl) propionyl-DEVDSW, was employed in a biochemical enzymatic cleavage assay using recombinant Caspase-3 enzyme purchased from Calbiochem. The assay was carried out using 1 uM substrate concentration in 20 mM HEPES buffer pH 7.4 containing 10% sucrose, 0.1% CHAPS, 100 mM NaCl, 1 mM EDTA, 10 mM DTT, in the presence of either 20 or 50 units of enzyme (100 ul final volume). The assay mixture was analysed at time intervals using an Edinburgh Instruments Fluorescence Lifetime Plate Reader. […] The deviation in fluorescence lifetime from that stated above was a consequence of the buffer system.

[4] = Fluorescence emission spectra / intensity; format: physicochemical
[5] = 20 mM HEPES buffer pH 7.4, 20 or 50 units of enzyme

CC(C)(C)OC(=O)/C=C/c1ccc2nc3ccccc3c(N)c2c1 [3-(9-Amino-acridin-2-yl)-acrylic acid tert-butyl ester]
Lifetime* (ns) [1]: 11.2 ns

CC(C)[C@H](NC(=O)[C@H](CCC(=O)O)NC(=O)[C@H](CC(=O)O)NC(=O)CCc1ccc2nc3ccccc3c(N)c2c1)C(=O)N[C@@H](CC(=O)O)C(=O)N[C@@H](CO)C(=O)N[C@@H](CCCCN)C(=O)O [3-(9-Amino-acridin-2-yl)-propionyl-DEVDSK] ({Propanoyl(3-(9AA-2-yl))}-DEVDSK-OH)
fluorescence lifetime [1]: 17.7 ns
Lifetime* (ns) [1]: 17.7 ns
fluorescence properties (emission spectrum, intensity, lifetime) compared with 9-aminoacridine [2]: comparable emission spectrum and fluorescence intensity to that of 9-aminoacridine

CC(C)[C@H](NC(=O)[C@H](CCC(=O)O)NC(=O)[C@H](CC(=O)O)NC(=O)CCc1ccc2nc3ccccc3c(N)c2c1)C(=O)N[C@@H](CC(=O)O)C(=O)N[C@@H](CO)C(=O)N[C@@H](Cc1c[nH]c2ccccc12)C(=O)O [3-(9-Amino-acridin-2-yl)-propionyl-DEVDSW] ({Propanoyl(3-(9AA-2-yl))}-DEVDSW-OH)
fluorescence lifetime [1]: 7.6 ns
Lifetime* (ns) [1]: 7.7 ns
fluorescence lifetime of reaction mixture after cleavage [3, 5]: 15.5 ns
fluorescence lifetime of reaction mixture at start of reaction [3, 5]: 8.5 ns
time at which cleavage reaction was progressing to completion ([3]; 50 units of caspase 3 enzyme, 20 mM HEPES buffer pH 7.4): 60 min
fluorescence intensity quenched by tryptophan ([4]; tryptophan (W) containing labelled peptide versus lysine (K) containing labelled peptide): 75%

CC(C)(C)OC(=O)CCc1ccc2nc3ccccc3c(N)c2c1 [3-(9-amino-acridin-2-yl)-propionic acid tert-butyl ester]
Lifetime* (ns) [1]: 16.7 ns
fluorescence properties (emission spectrum, intensity, lifetime) compared with 9-aminoacridine [2]: comparable to the parent 9-aminoacridine

Nc1c2ccccc2nc2ccc(CCC(=O)O)cc12 [3-(9-amino-acridin-2-yl)-propionic acid]
Lifetime* (ns) [1]: 17.0 ns
fluorescence properties (emission spectrum, intensity, lifetime) compared with 9-aminoacridine [2]: comparable to the parent 9-aminoacridine

CCOC(=O)CNc1c2ccccc2nc2ccccc12 [(Acridin-9-ylamino)acetic acid ethyl ester]
fluorescence lifetime ([1]; Excitation wavelength 405 nm and emission wavelength 450 nm): 14.9 ns

Cn1c2ccccc2c(=O)c2ccccc21 [N-methyl acridone, 10-methyl-9(10H)-acridone, reference compound]
Fluorescence Lifetime (nsecs) in PBS pH 7.4 [1]: 13.9 nsecs

Cn1c2ccccc2c(=S)c2ccccc21 [N-methyl thioacridone, 10-methyl-9(10H)-thioacridone, reference compound]
fluorescence emission intensity compared with N-methyl acridone [2]: considerably less fluorescent

Nc1c2ccccc2nc2ccccc12 [Number 1, 9-aminoacridine, reference compound]
Lifetime (ns) [1]: 15 ns
Fluorescence Lifetime (nsecs) in PBS pH 7.4 [1]: 16.0 nsecs
Relative intensity Ex405 nm, Emmax [2]: 1
fluorescence emission intensity compared with N-methyl acridone [2]: considerably brighter

Nc1ccc2nc3ccccc3c(N)c2c1 [Number 6]
Lifetime (ns) [1]: Not fluorescent
Relative intensity Ex405 nm, Emmax [2]: Not fluorescent
fluorescence (in words) ([4]; free amino dye, no acetylation): non-fluorescent

CC(=O)Nc1ccc2nc3ccc(N)cc3c(N)c2c1 [Number 7]
Lifetime (ns) [1]: multiexponential
Relative intensity Ex405 nm, Emmax [2]: Not fluorescent
